Assay results taken from US4098798A, “Adriamycins, process for their preparation and uses thereof” (Societa' Farmaceutici Italia S.p.A., priority 1974, dated 1978).
Values after ≈ are worked out from the molar mass of the structure shown.

Assays:
[1] = cell proliferation in uninfected mouse embryo fibroblast cultures (cytotoxic action); type: cell-based; conditions: mouse embryo fibroblasts, treatment of 3 days, read-out: Cytotoxic Action ID50
Protocol: (§1) The test compounds were evaluated on mouse embryo fibroblast cultures infected with MSV and on similar uninfected cultures. After a treatment of 3 days, the inhibiting doses (ID50) were evaluated on cell proliferation in uninfected cultures (cytotoxic action) and on MSV foci formation in infected cultures (antiviral action).

MSV = assay: Activity on MSV Production, focus assay; type: cell-based, Moloney Sarcoma Virus; conditions: 0.05 γ/ml, 3 days; control 4.7 × 10^4
Protocol: MSV infected cultures were treated for 3 days, and the virus yields were determined in the cell and supernatant medium by focus assay in the presence of leukemia virus.

[2] = tested on: Moloney Sarcoma Virus (MSV); assay: MSV foci formation in infected mouse embryo fibroblast cultures (antiviral action); type: cell-based; conditions: 72 h, treatment of 3 days, read-out: Antiviral Action ID50
Protocol: as §1

B-subtilis = assay: inhibition zones on agar-B-subtilis plates, paper disc technique; type: cell-based; conditions: hydrochlorides, read-out: inhibition zone diameter

Row | Compound | CC50 at 72 h [1] [µg/mL] | virus yield (FFU/ml) (MSV) | IC50 [2] [µg/mL] | zone of inhibition at 5 µg/disc (B-subtilis; 5 μg) [mm] | zone of inhibition at 10 µg/disc (B-subtilis; 10 μg) [mm] | zone of inhibition at 15 µg/disc (B-subtilis; 15 μg) [mm] | zone of inhibition at 20 µg/disc (B-subtilis; 20 μg) [mm]
1 | COc1cccc2c1C(=O)c1c(O)c3c(c(O)c1C2=O)CC(O)(C(=O)CO)CC3OC1CC(N)C(O)C(C)O1 (stereo not drawn) [4'-Epi-adriamycin] | 0.01 (≈ 0.0184 µM) | 4 × 10^2 FFU/ml | > 0.006 | – | – | – | –
2 | COc1cccc2c1C(=O)c1c(O)c3c(c(O)c1C2=O)C[C@@](O)(C(=O)CO)C[C@@H]3O[C@@H]1C[C@H](N)[C@@H](O)[C@H](C)O1 [4'-epi-adriamycin (β-anomer), 7-0-(3'-amino-2',3',6'-trideoxy-β-L-arabinohexopyranosyl)-adriamycinone] | – | – | – | 15 | 15.5 | 16 | 17
